According to patent US11478441B2, “Treatment of disease with n-acetyl kynurenine” (AMPIO PHARMACEUTICALS, INC., priority 2016, dated 2022):

Assay: Colorimetric (Ehrlich's reagent) detection of kynurenine-like molecules; thermal forced degradation / storage
Type: physicochemical
Source text: The quantitation of kynurenine-like species in […] was detected using a modified method by Meyer et al. (“Suitability of recombinant Escherichia coli and Pseudomonas putida strains for selective biotransformation of m-nitrotoluene by xylene monooxygenase”, Appl Environ Microbiol 71 (2005) 6624-6632). The method is based on the reaction of p-dimethylamino-benzaldehyde (DMAB or Ehrlich's reagent) with primary aromatic amines to form yellow imines in acidic conditions. Briefly, […], […] or kynurenine standard (0-800 μM in 0.9% saline) was combined in triplicate with 100 μL Ehrlich's reagent in a 96-well plate. The plate was read at 492 nm using a SpectraMax M2 plate reader (Molecular Devices, Sunnyvale, Calif., USA). […] […] was incubated at ambient temperature or 80° C. for 6 days. Aliquots were collected at 0, 1, 2, 3, or 6 days and analyzed in triplicate for kynurenine-like molecules using the colorimetric assay described in Section 2.3. Also, 4 mM N-acetyl tryptophan in 0.9% saline was incubated at 80° C. for 6 days.

For CC(=O)N[C@@H](Cc1c[nH]c2ccccc12)C(=O)O [NAT, N-acetyl tryptophan], the “concentration of kynurenine-like molecules” value (4 mM in 0.9% saline heated at 80° C. for 6 days) was 11.6 µM and the “levels of kynurenine-like molecules” value (4 mM in 0.9% saline, t=0) was “undetectable”.
